The pKa is the pH at which an ionisable group is half protonated.

The source of these data is patent publication US11820728B2, “Carbonyl lipids and lipid nanoparticle formulations for delivery of nucleic acids” (Acuitas Therapeutics, Inc., priority 2017, dated 2023).

SMILES strings stand for the structures.

A short description of data set [1]: Determination of pKa of formulated lipids (TNS fluorescence assay in lipid nanoparticles). It is filed as physicochemical. The following applies: lipid formulated in LNP, 47.5% cationic lipid/10% DSPC/40.8% Cholesterol/1.7% PEG lipid. The procedure: As described elsewhere, the pKa of formulated lipids is correlated with the effectiveness of LNPs for delivery of nucleic acids (see Jayaraman et al, Angewandte Chemie, International Edition (2012), 51(34), 8529-8533; Semple et al, Nature Biotechnology 28, 172-176 (2010)). The preferred range of pKa is ˜5 to ˜7. The pKa of each lipid was determined in lipid nanoparticles using an assay based on fluorescence of 2-(p-toluidino)-6-napthalene sulfonic acid (TNS). Lipid nanoparticles comprising novel lipid or structure (I) or (II)/DSPC/cholesterol/PEG-lipid (50/10/38.5/1.5 or 47.5:10:40.8:1.7 mol %) in PBS at a concentration of 0.4 mM total lipid are prepared using the in-line process as described in Example 1. TNS was prepared as a 100 μM stock solution in distilled water. Vesicles were diluted to 24 μM lipid in 2 mL of buffered solutions containing 10 mM HEPES, 10 mM MES, 10 mM ammonium acetate, and 130 mM NaCl, where the pH ranged from 2.5 to 11. An aliquot of the TNS solution was added to give a final concentration of 1 μM and following vortex mixing fluorescence intensity was measured at room temperature in a SLM Aminco Series 2 Luminescence Spectrophotometer using excitation and emission wavelengths of 321 nm and 445 nm. A sigmoidal best fit analysis was applied to the fluorescence data and the pKa was measured as the pH giving rise to half-maximal fluorescence intensity.
(§1) Tables 3 and 4 provide properties of representative compounds of structure (I) and (II), respectively, which were formulated using the following molar ratio: 47.5% cationic lipid/10% distearoylphosphatidylcholine (DSPC)/40.8% Cholesterol/1.7% PEG lipid (“PEG-DMA” 2-[2-(ω-methoxy(polyethyleneglycol2000)ethoxy]-N,N-ditetradecylacetamide). Relative activity was determined by measuring luciferase expression in the liver 4 hours following administration via tail vein injection as described in Example 1. The activity was compared at a dose of 0.3 and 1.0 mg mRNA/kg and expressed as ng luciferase/g liver measured 4 hours after administration, as described in Example 1.

Data set [2] concerns luciferase expression in the liver. Put plainly: Luciferase mRNA in vivo evaluation using lipid nanoparticle compositions. Further details: species or system mice. The following applies: tail vein injection, liver 4 hours after administration, LNP 47.5/10/40.8/1.7; for Liver Luc @ 0.3 mg/kg (ng luc/g liver): 0.3 mg mRNA/kg; for Liver Luc @ 1.0 mg/kg (ng luc/g liver): 1.0 mg mRNA/kg. The procedure:
A lipid of structure (I) or (II), DSPC, cholesterol and PEG-lipid were solubilized in ethanol at a molar ratio of 50:10:38.5:1.5 or 47.5:10:40.8:1.7. Lipid nanoparticles (LNP) were prepared at a total lipid to mRNA weight ratio of approximately 10:1 to 30:1. Briefly, the mRNA was diluted to 0.2 mg/mL in 10 to 50 mM citrate buffer, pH 4. Syringe pumps were used to mix the ethanolic lipid solution with the mRNA aqueous solution at a ratio of about 1:5 to 1:3 (vol/vol) with total flow rates above 15 mL/min. The ethanol was then removed and the external buffer replaced with PBS by dialysis. Finally, the lipid nanoparticles were filtered through a 0.2 µm pore sterile filter.
Studies were performed in 6-8 week old female C57BL/6 mice (Charles River) 8-10 week old CD-1 (Harlan) mice (Charles River) according to guidelines established by an institutional animal care committee (ACC) and the Canadian Council on Animal Care (CCAC). Varying doses of mRNA-lipid nanoparticle were systemically administered by tail vein injection and animals euthanized at a specific time point (e.g., 4 hours) post-administration. Liver and spleen were collected in pre-weighed tubes, weights determined, immediately snap frozen in liquid nitrogen and stored at −80° C. until processing for analysis.
For liver, approximately 50 mg was dissected for analyses in a 2 mL FastPrep tubes (MP Biomedicals, Solon Ohio). ¼″ ceramic sphere (MP Biomedicals) was added to each tube and 500 μL of Glo Lysis Buffer—GLB (Promega, Madison WI) equilibrated to room temperature was added to liver tissue. Liver tissues were homogenized with the FastPrep24 instrument (MP Biomedicals) at 2×6.0 m/s for 15 seconds. Homogenate was incubated at room temperature for 5 minutes prior to a 1:4 dilution in GLB and assessed using SteadyGlo Luciferase assay system (Promega). Specifically, 50 μL of diluted tissue homogenate was reacted with 50 μL of SteadyGlo substrate, shaken for 10 seconds followed by 5 minute incubation and then quantitated using a CentroXS^3 LB 960 luminometer (Berthold Technologies, Germany). The amount of protein assayed was determined by using the BCA protein assay kit (Pierce, Rockford, IL). Relative luminescence units (RLU) were then normalized to total μg protein assayed. To convert RLU to ng luciferase a standard curve was generated with QuantiLum Recombinant Luciferase (Promega).
The FLuc mRNA (L-6107) from Trilink Biotechnologies will express a luciferase protein, originally isolated from the firefly, photinus pyralis. FLuc is commonly used in mammalian cell culture to measure both gene expression and cell viability. It emits bioluminescence in the presence of the substrate, luciferin. This capped and polyadenylated mRNA is fully substituted with 5-methylcytidine and pseudouridine.
as §1

In turn, `CCCCCCCCC(CCCCCC)COC(=O)CCCCCN(CCCCCC(=O)OCC(CCCCCC)CCCCCCCC)CCCCC(=O)O` (stereo not shown) [Compound I-2] returned a pKa in data set [1] (structure (I) compounds) of 5.57.

Consider `CCCCCCCCCN(CCO)C(=O)CCCCN(CCCCCC(=O)OCC(CCCCCC)CCCCCCCC)CCCCCC(=O)OCC(CCCCCC)CCCCCCCC` (stereo not shown) [Compound I-6], for which the pKa in data set [1] (structure (I) compounds) turned out to be 6.32. Moreover, in data set [2] (structure (I) compounds), the “Liver Luc @ 0.3 mg/kg (ng luc/g liver)” value is on record as 580 ± 209 ng luc/g liver and the “Liver Luc @ 1.0 mg/kg (ng luc/g liver)” value was determined as 3290 ± 582 ng luc/g liver.

In data set [1] (structure (I) compounds), `CCCCCCCCC(CCCCCC)COC(=O)CCCCCCCN(CCCCCCCC(=O)OCC(CCCCCC)CCCCCCCC)CCCCC(=O)N(CC)CC` (stereo not shown) [Compound I-11] registered a pKa of 5.89. In addition, in data set [2] (structure (I) compounds), the “Liver Luc @ 0.3 mg/kg (ng luc/g liver)” value amounted to 228 ± 101 ng luc/g liver and the “Liver Luc @ 1.0 mg/kg (ng luc/g liver)” value is reported as 910 ± 454 ng luc/g liver.

As for `CCCCCCCCC(CCCCCC)COC(=O)CCCCCN(CCCCCC(=O)OCC(CCCCCC)CCCCCCCC)CCCCNC(=O)CCCCCCC` (stereo not shown) [II-4], the pKa in data set [1] (structure (II) compounds) is 5.95. In addition, in data set [2] (structure (II) compounds), the “Liver Luc @ 0.3 mg/kg (ng luc/g liver)” value is given as 150 ± 59 ng luc/g liver and the “Liver Luc @ 1.0 mg/kg (ng luc/g liver)” value is 1405 ± 306 ng luc/g liver.

`CCCCCCCCNC(=O)CCCCN(CCCCCC(=O)OCC(CCCCCC)CCCCCCCC)CCCCCC(=O)OCC(CCCCCC)CCCCCCCC` (stereo not shown) [Compound I-3]: in data set [1] (structure (I) compounds), the pKa is 5.99. Besides, in data set [2] (structure (I) compounds), the “Liver Luc @ 0.3 mg/kg (ng luc/g liver)” value is reported as 139 ± 43 ng luc/g liver and the “Liver Luc @ 1.0 mg/kg (ng luc/g liver)” value stood at 1711 ± 507 ng luc/g liver.

In data set [1] (structure (II) compounds), `CCCCCCCC(=O)N(C)CCCN(CCCCCC(=O)OCC(CCCC)CCCCCC)CCCCCC(=O)OCC(CCCC)CCCCCC` (stereo not shown) [II-14] showed a pKa of 5.63. Moreover, in data set [2] (structure (II) compounds), the “Liver Luc @ 0.3 mg/kg (ng luc/g liver)” value amounted to 128 ± 17 ng luc/g liver and the “Liver Luc @ 1.0 mg/kg (ng luc/g liver)” value stood at 827 ± 537 ng luc/g liver.

`CCCCCCCCC(CCCCCC)COC(=O)CCCCCCCN(CCCCCCCC(=O)OCC(CCCCCC)CCCCCCCC)CCCCN(C)C(C)=O` (stereo not shown) [II-5] returned a pKa in data set [1] (structure (II) compounds) of 6.8. Also, in data set [2] (structure (II) compounds), the “Liver Luc @ 0.3 mg/kg (ng luc/g liver)” value is given as 146 ± 16 ng luc/g liver and the “Liver Luc @ 1.0 mg/kg (ng luc/g liver)” value is on record as 695 ± 278 ng luc/g liver.

On to `CCCCCCCCC(CCCCCC)COC(=O)CCCCCN(CCCCCC(=O)OCC(CCCCCC)CCCCCCCC)CCCN(CCCO)C(=O)CCCCCCC` (stereo not shown) [II-16], for which, in data set [1] (structure (II) compounds), the pKa amounted to 6.08. In addition, in data set [2] (structure (II) compounds), the “Liver Luc @ 0.3 mg/kg (ng luc/g liver)” value is listed as 93 ± 38 ng luc/g liver and the “Liver Luc @ 1.0 mg/kg (ng luc/g liver)” value amounted to 1312 ± 569 ng luc/g liver.

In turn, `CCCCCCCCC(CCCCCC)COC(=O)CCCCCCCN(CCCCCCCC(=O)OCC(CCCCCC)CCCCCCCC)CCCCC(=O)N(CCCO)CCCCCCCC` (stereo not shown) [Compound I-12] came in with a pKa in data set [1] (structure (I) compounds) of 6.01. Also, in data set [2] (structure (I) compounds), the “Liver Luc @ 0.3 mg/kg (ng luc/g liver)” value amounted to 413 ± 143 ng luc/g liver and the “Liver Luc @ 1.0 mg/kg (ng luc/g liver)” value was determined as 4002 ± 1573 ng luc/g liver.
